Assay results taken from EPA's ToxValDB 9.5 (doi:10.2903/j.efsa.2009.1350).
Values after ≈ are worked out from the molar mass of the structure shown.

Experiments:
Anas platyrhynchos = conditions: for NOEC: reproductive
Apis mellifera = conditions: acute; duration: 48 hours; oral; unspecified; mortality
Bibionidae = conditions: chronic/long-term; duration: 28 days
Canidae = conditions: subchronic; duration: 90 days; oral; diet; Dog Other; clinical signs
Cyprinodon variegatus = conditions: mortality
Daphnia magna = conditions: chronic/long-term; duration: 21 days; reproduction
Lolium perenne = conditions: acute; duration: 21 days; other
Neomysis kadiakensis = conditions: chronic/long-term; duration: 28 days; reproduction
Rattus norvegicus = conditions: for LD50: acute; for NOAEL: histopathology: nonneoplastic
Typhlodromus pyri = experiment: LR50; higher = less toxic; conditions: acute; duration: 7 days; mortality

## CCCOc1nc2ccc(I)cc2c(=O)n1CCC [Proquinazid]
Anas platyrhynchos; F
  NOEC: 29.6 mg/kg-day
Anas platyrhynchos; M
  NOEC: 31.5 mg/kg-day
Anas platyrhynchos; short-term, oral, feed, mortality
  LC50: 3110 mg/kg-day
Apis mellifera
  LD50: > 125 µg/piece
Bibionidae
  NOEC: 0.465 mg/L
Canidae
  NOAEL: 19 mg/kg-day
Colinus virginianus; acute, oral, diet, mortality
  LC50: 1370 mg/kg-day
Colinus virginianus; acute, oral, mortality
  LD50: > 2250 mg/kg-day
Colinus virginianus; reproduction developmental
  NOEC: 7.78 mg/kg-day
Cyprinodon variegatus; acute, duration: 96 hours
  LC50: > 0.58 mg/L
Cyprinodon variegatus; chronic/long-term, duration: 36 days
  NOEC: 0.00872 mg/L
Daphnia magna
  NOEC: 0.0018 mg/L
Lolium perenne
  LEL: 75 g/ha
Neomysis kadiakensis
  NOEC: 0.0105 mg/L
Oncorhynchus mykiss; acute, duration: 96 hours, mortality
  LC50: 0.349 mg/L (≈ 0.938 µM)
Oncorhynchus mykiss; chronic/long-term, duration: 90 days, other
  NOEC: 0.003 mg/L
Rattus norvegicus; oral, mortality
  LD50: 4850 mg/kg-day
Rattus norvegicus; chronic, duration: 2 years
  NOAEL: 1.2 mg/kg-day
Rattus norvegicus; chronic, mortality
  NOEL: > 600 mg/kg-day
Rattus norvegicus; reproduction developmental, reproduction
  NOEL: 35.1 mg/kg-day
Rattus norvegicus; subchronic, duration: 90 days, oral, diet
  NOAEL: 2 mg/kg-day
Tagia sp.; acute, duration: 14 days, mortality
  LC50: > 1000 mg/kg
Tagia sp.; chronic/long-term, duration: 56 days
  NOEC: > 50.9 mg/kg
Typhlodromus pyri
  LR50: 47.9 g/ha

## CCCOc1nc2ccccc2c(=O)n1CCC [2-Propoxy-3-propyl-4(3H)-quinazolinone]
Rattus norvegicus; oral, mortality
  LD50: 2050 mg/kg-day
